For data set [1], the system named is Primary rat cortical neurons. Description: Staurosporine (STS) injury assay, cell viability by CELLTITER-BLUE. It is filed as cell-based. The protocol:
Primary rat cortical neurons were cultured on poly-D-lysine coated 96-well plates at a density of 1×10^5/well in Neurobasal medium+B27 supplement. 1/2 media swaps were given every 3 d. ARA-c was added to the medium on day in vitro (DIV) 3 to inhibit glial proliferation. On DIV9, maintenance media (2/3) was collected from plates and mixed with fresh media (1/3) to obtain ˜67% conditioned medium (CM). Staurosporine (STS) and drugs were prepared in 100% DMSO and diluted in CM. Uninjured controls received an equal concentration of DMSO. Primary cortical neurons were incubated with +STS+drugs for in 100 μL/well CM. Cell viability was determined 24 h later (DIV10) by CELLTITER-BLUE® (n=10 replicates/group). […] Data were analyzed by 1-Way-ANOVA and Newman-Keuls Multiple Comparison Test. Graphs show Mean+SEM. Data are significant at p<0.05. Conclusion: NSC74429 is a potent a neuroprotectant as determined by the STS cell death assay.
Background: The colour change of resazurin is a common sign of viable cells or microbes.

The test system of data set [2] is pAKT473. Conditions: primary rat cortical neurons, Jackson et al., 2013; cited from earlier work.
The next data set concerns PHLPP2. To be noted: reported by Sierecki and colleagues; read-out: IC50 to block PHLPP2; cited from earlier work.
Data set [3] concerns Primary rat cortical neurons. Description: Glutamate-excitotoxicity assay, cell viability by CELLTITER-BLUE. Type of data set: cell-based. To be noted: 10 μM glutamic acid 5 min, viability 24 h later. The protocol:
(§1) Primary rat cortical neurons were cultured on poly-D-lysine coated 96-well plates at a density of 1×10^5/well in Neurobasal medium+B27 supplement. 1/2 media swaps were given every 3 d. ARA-c was added to the maintenance medium on day in vitro (DIV) 3 to inhibit glial proliferation. (A) On DIV9, maintenance media (2/3) was collected from plates and mixed with fresh media (1/3) to obtain 67% conditioned medium (CM). Cells were washed once with balanced salt solution (BSS supplemented with 5 mM glucose; 200 μL/well). BSS was replaced with BSS containing 10 μM glutamic acid, and incubated on cells 5 min to induce excitotoxicity. Glutamic acid/BSS was replaced with 100 μL/well CM, containing DMSO (control) or drugs, and returned to the incubator for 24 h (n=10 replicates/group). (B) DIV9 cells were washed once with BSS, injured 35 min with 40 μM H2O2 dissolved in BSS, and replaced with 100 μL/well CM containing DMSO (control) or drugs. Cell viability was determined 24 h later (DIV10) by addition of 20 μL/well CELLTITER-BLUE® (n=10 replicates/group). Data were analyzed by 1-Way-ANOVA and Newman-Keuls Multiple Comparison Test. Graphs show Mean+SEM. Data are significant at p<0.05. Excitotoxicity is a major cause of neuronal death across the spectrum of CNS injury.

Another data set deals with C57BL/6 mice. Put plainly: Adult mouse controlled cortical impact plus hemorrhagic shock (CCI+HS), CA1/CA3 cell counts. Type of data set: in vivo. The text has this:
Traumatic brain injury (TBI) compromises the BBB, making it easier for drugs to reach injured tissue, and TBI is also worsened by secondary injuries such as hypotension due to profound blood loss (HS). Adult male ˜28 g C57BL/6 mice were anesthetized with isoflurane via a nose cone (4% induction/2% maintenance on 70% N2O/30% O2), given preparatory surgery, and sequentially injured by (1) a CCI-TBI and (2) HS, as reported by our group (Jackson et al., 2015). In brief, mice were given a moderate CCI above the left parietal cortex (impact tip velocity 5 m/s and cortical depth 1.0 mm). 5 min later, HS was initiated by withdrawing blood until mean arterial pressure (MAP) decreased from ˜90 mmHG (normal) to ˜25-27 mmHG (hypotensive). HS was maintained for 35 min. Mice were then volume resuscitated using lactated ringer's (LR) solution for 90 min to mimic pre-hospital care (targeted MAP of ˜70 mmHG). Finally, shed blood was returned over 15 min to mimic definitive hospital care and MAP returned to normal. (A-D) In a first study we measured the acute neuroprotective effects of NSC74429 on hippocampal injury 48 h after CCI+HS. Mice were given an intravenous bolus injection of vehicle (5% DMSO in D5W) or NSC74429 (1 mg/kg or 3 mg/kg) immediately after the hospital phase (i.e. […] after the initial CCI-injury). A second intraperitoneal injection was administered 24 h later, and brains collected for CA1/CA3 cell counts 48 h post-injury. One animal died in the vehicle-injury group and four animals died in the 3 mg/kg NSC74429 group prior to tissue collection. (A and B) Scatter plots show CA1/CA3 cell counts in surviving animals. 1 mg/kg NSC74429 was neuroprotective. Hippocampal survival bifurcated in the 3 mg/kg high-dose group; some animals had improved CA1/CA3 survival vs. vehicle-injury whereas others were clearly made worse. Given that mortality was also higher with 3 mg/kg NSC74429 (4 vs. 1), we eliminated the high-dose group from further statistical analysis. (C and D) Statistical analysis of CA1/CA3 cell counts. […] (E and F) A second study was done to test if NSC74429 neuroprotection is sustained chronically by 7 d post-injury. Only the low dose (1 mg/kg) was tested. Mice were injured as described above, given intravenous injection of vehicle or 1 mg/kg drug immediately following the hospital phase of HS, supplemental injections administered intraperitoneally at 24 h, 48 h, and 72 h post-injury, and brains collected for histology 7 d post-injury. […] Data were analyzed by 1-Way-ANOVA and Newman-Keuls Multiple Comparison Test. Graphs show Mean+SEM. Data are significant at p<0.05. Injured rats were randomized to treatment group, and drugs provided to a technician in de-identified coded vials. The technician that administered drug injections, and the technician that analyzed histology, were blinded to treatment group. Conclusion: NSC74429 is neuroprotective in the acute and chronic phase after injury in a severe trauma model.

Data set [4] relates to Primary rat cortical neurons. Description: Hydrogen peroxide (H2O2)-oxidative stress assay, cell viability by CELLTITER-BLUE. Type of data set: cell-based. To be noted: 40 μM H2O2 35 min, viability 24 h later. On the procedure:
as §1

In another data set the test system is Sprague Dawley rats. Put plainly: Adult rat asphyxia cardiac arrest (ACA), hippocampal CA1 cell survival counts. It is filed as in vivo. Conditions: 1 mg/kg or 3 mg/kg, given 5 min after ROSC. The text has this:
We tested the therapeutic efficacy of NSC74429 in a model of brain injury (ACA) in which the blood brain barrier (BBB) remains intact. Male ˜300 g Sprague Dawley rats were anesthetized on isoflurane (4% induction/2% maintenance on 50% O2/50% N2) and mechanically ventilated. The left femoral artery and vein were accessed and cannulated with heparinized-saline filled PE-50 tubing. EKG, mean arterial pressure (MAP), rectal temperature, and pectoralis temperature were continuously monitored. Body temperature was maintained to 37° C. Arterial blood gas measurements were analyzed and ventilator settings adjusted as needed to achieve normal PaO2 and PaCO2. 2 mg/kg cisatracurium was administered 5 min prior to CA to stop spontaneous breathing (i.e. neuromuscular blockage). The ventilator was disconnected. Mean arterial pressure (MAP) decreased over 2-3 min until reaching target no-flow (<10 mmHG). […] Data were analyzed by 1-Way-ANOVA and Newman-Keuls Multiple Comparison Test. […] The technician that administered drug injections, and the technician that analyzed histology, were blinded to treatment group. A single value in the vehicle-injury group (indicated by a * in the table above) was a statistical outlier as determined by the Dixon's test and was removed from statistical analysis. […]

For data set [5], the system named is pAKT473. Put plainly: pAKT473 levels in vivo, injured hippocampus after ACA. Conditions: rat ACA, 1 or 3 mg/kg, iv 5 min after ROSC and ip 24 h post-injury, tissue 1 h after final injection. On the procedure: A separate cohort of rats was used to generate hippocampal tissue homogenates. Rats were given ACA and subsequently treated with (a) vehicle, (b) 1 mg/kg NSC74429, or (c) 3 mg/kg NSC74429. Treatments were administered by iv bolus injection 5 min after ROSC, and a 2nd ip bolus injection 24 h post-injury. Shams were administered vehicle injections and preparatory surgery but were not injured. Rats were euthanized 1 h following the final drug injection and brain tissue collected for protein analysis. […] Data were analyzed by 1-Way-ANOVA and Newman-Keuls Multiple Comparison Test. Injured rats were randomized to treatment group, and drugs provided to a technician in de-identified coded vials. The technician that administered drug injections was blinded to treatment group. Graphs show Mean+SEM. Data are significant at p<0.05.

Data set [6] deals with pAKT473. Put plainly: pAKT473 levels in cultured primary rat cortical neurons (Western blots). It is filed as cell-based. To be noted: 25 μM or 50 μM, 35 min. The protocol: We tested if NSC74429 also increases pAKT473 levels using our published protocol. In brief, uninjured primary rat cortical neurons were maintained in Neurobasal+B27. Prior to treatments, neurons were given a supplement starvation period by exchanging maintenance media with basic Neurobasal (i.e. minus B27), and returned to a 37° C. incubator for 2 h. Neurons were subsequently treated 35 min with DMSO, 25 μM NSC74429, or 50 μM NSC74429 (diluted in basic Neurobasal). Western blots confirm that PHLPP1 and PHLPP2 isoforms are detected in rat cortical neurons. […] PHLPP inhibitors increase pAKT473 levels but NSC74429 had the opposite effect. Moreover, inhibition of pAKT473 is expected to promote cell death yet NSC74429 (AKT inhibitor) was neuroprotective as shown in FIG. 1 and FIG. 2. […] Data were analyzed by 1-Way-ANOVA and Newman-Keuls Multiple Comparison Test. Graphs show Mean+SEM. Data are significant at p<0.05. Conclusion: Together PHLPP1 and PHLPP2 regulate the dephosphorylation of pAKT473 on AKT1, AKT2, and AKT3 isoforms.
On the technique in general: In western blotting, separated proteins are transferred to a membrane and probed.

[7] abbreviates: 1 mg/kg iv then ip at 24 h, 48 h post-injury.

SMILES strings stand for the structures. Like-named read-outs stand apart in the source and are kept apart here.

In general, IC50 refers to the midpoint of a concentration-inhibition curve.

`COc1cc(NCCC2CCCCN2)c2ncccc2c1` (stereo not shown) [NSC13378]: in data set [1] (viability 24 h later (DIV10)), the “neuroprotection, cell viability after STS injury” value (“neuroprotection, cell viability” below) is “failed to protect”.

As for `Nc1c(S(=O)(=O)O)cc(Nc2cccc(S(N)(=O)=O)c2)c2c1C(=O)c1ccccc1C2=O` [NSC117079], the pAKT473 levels result with pAKT473 [2] was “dose-dependently increase pAKT473 levels”.

As for `CN(C)CCOC(=O)c1ccc(N)cc1` [NSC25247], the “neuroprotection, cell viability” value in data set [1] (50 μM, viability 24 h later) is listed as “mildly neuroprotective”.

Consider `S=C(Nc1ccc2cn[nH]c2c1)Nc1ccc2cn[nH]c2c1` [NSC74429], for which the IC50 in the data set with PHLPP2 was 5 µM. Also, the glutamate-induced neuronal death result in data set [3] (25 μM) was “insufficient to decrease glutamate-induced neuronal death”. Moreover, the “glutamate-induced neuronal death (excitotoxic injury)” value in data set [3] (50 μM) is “reduced excitotoxic injury”. In the data set with C57BL/6 mice (1 mg/kg iv then ip at 24, 48, 72 h, 7 d post-injury), the CA1 survival result was “equivalent in both injured groups”. The “CA3 tissue sparing, above vehicle injury” value in the data set on C57BL/6 mice (1 mg/kg iv then ip at 24, 48, 72 h, 7 d post-injury, not statistically significant) is given as approximately 17.5%. For the same molecule, in the data set on C57BL/6 mice (setting [7]), the CA1 cell survival result is “significantly increased” and the CA3 cell survival entry is recorded as “significantly increased”. In the data set with C57BL/6 mice (3 mg/kg high-dose group, 48 h post-injury), the “hippocampal CA1/CA3 survival” value is listed as “bifurcated”. In addition, the “mortality (animals died prior to tissue collection)” value with C57BL/6 mice (3 mg/kg, vs. 1 in vehicle-injury group) is listed as 4 animals. Further, in [4], the “cell death induced by oxidative stress” value is listed as “decreases cell death”. Moreover, the “hippocampal CA1 cell survival (neuroprotection)” value in the data set with Sprague Dawley rats is recorded as “neuroprotective”. Also, the “pAKT473 levels in the injured hippocampus” value with pAKT473 [5] is given as “did not increase pAKT473 levels”. For the same molecule, the “pmTOR2448 (other phosphorylated proteins)” value in the data set with pAKT473 [6] (uninjured neurons) is reported as “did not affect”. For the same molecule, in the data set with pAKT473 [6] (uninjured neurons after 2 h supplement starvation), the pAKT473 levels result is recorded as “dose-dependently decreased pAKT473 levels”. Further, the “neuroprotection, cell viability” value in data set [1] (25-50 μM, viability 24 h later) was “potently neuroprotective”.

For `Cc1cc(N=Nc2ccc(N=Nc3ccc(O)c(C(=O)[O-])c3)cc2)c(N)cc1N.[Na+]` [NSC45586], the pAKT473 levels entry in the data set with pAKT473 [2] is given as “dose-dependently increase pAKT473 levels”.

These data come from patent US11534425B2, “Compounds for the treatment of acute organ injury” (priority 2018, dated 2022).
